# Data: US8093231B2, “Sulfonylethyl phosphorodiamidates” (Telik, Inc., priority 2004, dated 2012)
# Where two headings read alike, the source gives them in different places.
# Legend:
# Format in all cases: cell-based, human
# [1] = test system: DLD-1 (colorectal adenocarcinoma); experiment: Cytotoxicity/growth inhibition assay, DLD-1; conditions: read-out: IC50 (DLD-1)
# Excerpt: (§1) The human cancer cell lines DLD-1 (colorectal adenocarcinoma), LNCap (prostate carcinoma), and OVCAR-3 (ovarian carcinoma) were obtained from the American Type Culture Collection, Manassas, Va., U.S.A., and HL-60 (promyeloid myelocytic leukemia), MX-1 (breast carcinoma), P388, and P388ADR from the National Cancer Institute, Bethesda, Md., U.S.A. Carboplatin, doxorubicin, and melphalan were obtained from Sigma-Aldrich Chemical Company, St. Louis, Mo., U.S.A. The CellTiter-Glo assay kit was obtained from Promega Corporation, Madison, Wis., U.S.A., and the Cellular DNA Cytometric Analysis Reagent Kit from Roche Diagnostics Corporation, Indianapolis, Ind., U.S.A. Lambda DNA was obtained from New England Biolabs, Beverly, Mass., U.S.A., and SYBR-Gold from Molecular Probes, Inc., Eugene, Oreg., U.S.A. The DNeasy Tissue Kit was obtained from Qiagen Inc., Valencia, Calif., U.S.A., and AmpliTaq Gold DNA polymerase and PCR reagents from Applied Biosystems, Foster City, Calif., U.S.A. All products were used in accordance with manufacturer's directions. All assays were conducted in triplicate wells, with dimethyl sulfoxide (DMSO) solvent control. The extent of cell growth was expressed as a percentage of the signal from the solvent control wells.
# (§2) Log-phase cells were trypsinized, collected by centrifugation, and resuspended in a small volume of fresh medium, and the density of viable cells was determined following Trypan Blue staining. Cells were diluted in fresh media (3×10^3 cells/mL for MX-1, 3×10^3 cells/mL for DLD-1, and 6×10^3 cells/mL for LNCap cells), the test compounds (concentrations between 0.1 and 200 μM, dissolved in DMSO, 50 μL) added immediately after dilution to achieve a final DMSO concentration of 0.5%, then the suspensions added at 150 μL/well to 96-well plates, and incubated for several hours to allow attachment in the case of adherent cells. The cells were cultured for approximately three doubling times (3 days for MX-1 and 4 days for DLD-1 and LNCap). The cells were then collected by centrifugation, and 100 μL of the culture supernatant was replaced by the CellTiter-Glo reagent. After incubation for 15 minutes at room temperature, and the plate was read with a luminometer.
# [2] = test system: MX-1 (breast carcinoma); experiment: Cytotoxicity/growth inhibition assay, MX-1; conditions: read-out: IC50 (MX-1)
# Excerpt: as §1, §2
# [3] = test system: LNCap (prostate carcinoma); experiment: Cytotoxicity/growth inhibition assay, LNCap; conditions: read-out: IC50 (LNCap)
# Excerpt: as §1, §2
# [4] = DLD-1 cells, 4 days culture, CellTiter-Glo, 0.1-200 μM tested
# [5] = MX-1 cells, 3 days culture, CellTiter-Glo, 0.1-200 μM tested
# [6] = LNCap cells, 4 days culture, CellTiter-Glo, 0.1-200 μM tested
SMILES,"IC50 [1, 4]","IC50 [2, 5]","IC50 [3, 6]","IC50 ([1]; Homo sapiens, DLD-1, 96 h)","IC50 ([2]; Homo sapiens, MX1, 72 h)","IC50 ([3]; Homo sapiens, LNCaP, 96 h)"
O=P(OCCS(=O)(=O)c1ccc(C(F)(F)F)cc1)(N(CCCl)CCCl)N(CCCl)CCCl [Compound 109A],0.6 µM,1.1 µM,7.7 µM,,,
CC(C)NC(=O)[C@@H](N)CS(=O)(=O)CCOP(=O)(N(CCCl)CCCl)N(CCCl)CCCl [Compound 89A],8.5 µM,22.2 µM,140 µM,,,
O=P(OCCS(=O)(=O)C1CCCC1)(N(CCCl)CCCl)N(CCCl)CCCl [Compound 10A],7.7 µM,14.4 µM,43 µM,,,
CCCCCCCCS(=O)(=O)CCOP(=O)(N(CCCl)CCCl)N(CCCl)CCCl [Compound 12A],3.5 µM,13.9 µM,14.1 µM,,,
CC(C)(C(N)C(=O)O)S(=O)(=O)CCOP(=O)(N(CCCl)CCCl)N(CCCl)CCCl (stereo not drawn) [Compound 75A],7.6 µM,33.1 µM,185 µM,,,
Cc1cccc(CS(=O)(=O)CCOP(=O)(N(CCCl)CCCl)N(CCCl)CCCl)c1 [Compound 129A],5.4 µM,7.1 µM,16.3 µM,,,
O=P(OCCS(=O)(=O)Cc1ccc(Cl)cc1)(N(CCCl)CCCl)N(CCCl)CCCl [Compound 131A],3.6 µM,5.2 µM,6.9 µM,,,
N[C@@H](CS(=O)(=O)CCOP(=O)(N(CCCl)CCCl)N(CCCl)CCCl)C(=O)NCCC(=O)O [Compound 94A],37.5 µM,22.8 µM,≥ 200 µM,,,
CC(=O)NCCS(=O)(=O)CCOP(=O)(N(CCCl)CCCl)N(CCCl)CCCl [Compound 17A],4.2 µM,6.3 µM,13.9 µM,,,
N#Cc1ccc(S(=O)(=O)N[C@@H](CS(=O)(=O)CCOP(=O)(N(CCCl)CCCl)N(CCCl)CCCl)C(=O)N2CCOCC2)cc1 [Compound 100A],7.4 µM,16.2 µM,61.4 µM,,,
CN(CC(=O)OC(C)(C)C)C(=O)CS(=O)(=O)CCOP(=O)(N(CCCl)CCCl)N(CCCl)CCCl [Compound 28A],5.1 µM,9 µM,35.2 µM,,,
O=[N+]([O-])c1cccc(CS(=O)(=O)CCOP(=O)(N(CCCl)CCCl)N(CCCl)CCCl)c1 [Compound 138A],1.8 µM,16.8 µM,12 µM,,,
CN(CC(=O)O)C(=O)CS(=O)(=O)CCOP(=O)(N(CCCl)CCCl)N(CCCl)CCCl [Compound 34A],12 µM,9 µM,97.2 µM,,,
CC(=O)N[C@@H](CS(=O)(=O)CCOP(=O)(N(CCCl)CCCl)N(CCCl)CCCl)C(=O)O [Compound 73A],18 µM,29.6 µM,73.2 µM,,,
O=P(OCCS(=O)(=O)Cc1cccc(C(F)(F)F)c1)(N(CCCl)CCCl)N(CCCl)CCCl [Compound 133A],2.6 µM,2.7 µM,8.2 µM,,,
Cc1cnc(S(=O)(=O)CCOP(=O)(N(CCCl)CCCl)N(CCCl)CCCl)nc1 [Compound 123A],5.9 µM,9 µM,25.1 µM,,,
O=P(OCCS(=O)(=O)c1ccccn1)(N(CCCl)CCCl)N(CCCl)CCCl [Compound 124A],6 µM,7.2 µM,15.5 µM,,,

SMILES,"IC50 [1, 4]","IC50 [2, 5]","IC50 [3, 6]","IC50 ([1]; Homo sapiens, DLD-1, 96 h)","IC50 ([2]; Homo sapiens, MX1, 72 h)","IC50 ([3]; Homo sapiens, LNCaP, 96 h)"
O=C(Nc1cc(CS(=O)(=O)CCOP(=O)(N(CCCl)CCCl)N(CCCl)CCCl)cc(CS(=O)(=O)CCOP(=O)(N(CCCl)CCCl)N(CCCl)CCCl)c1)c1cccnc1 [Compound 22B],2.5 µM,7 µM,40.8 µM,,,
CS(=O)(=O)N[C@@H](CS(=O)(=O)CCOP(=O)(N(CCCl)CCCl)N(CCCl)CCCl)C(=O)N1CCOCC1 [Compound 96A],9.6 µM,30.2 µM,81 µM,,,
O=C(NCc1ccccc1)c1ccc(CS(=O)(=O)CCOP(=O)(N(CCCl)CCCl)N(CCCl)CCCl)cc1 [Compound 161A],3.7 µM,7.4 µM,11.7 µM,,,
O=P(OCCS(=O)(=O)Cc1ccc(Cl)c(Cl)c1)(N(CCCl)CCCl)N(CCCl)CCCl [Compound 134A],1.2 µM,1.5 µM,4.8 µM,,,
O=P(OCCS(=O)(=O)c1ccccc1)(N(CCCl)CCCl)N(CCCl)CCCl [Compound 117A],4 µM,4.1 µM,16.3 µM,,,
O=C(CS(=O)(=O)CCOP(=O)(N(CCCl)CCCl)N(CCCl)CCCl)Nc1ccc(C(=O)O)cc1 [Compound 33A],8.6 µM,20.6 µM,98.6 µM,,,
CC(C)(C)OC(=O)N[C@@H](CS(=O)(=O)CCOP(=O)(N(CCCl)CCCl)N(CCCl)CCCl)C(=O)N1CCOCC1 [Compound 83A],6.7 µM,12.9 µM,27.8 µM,,,
CC(=O)NC(C(=O)O)C(C)(C)S(=O)(=O)CCOP(=O)(N(CCCl)CCCl)N(CCCl)CCCl (stereo not drawn) [Compound 74A],27.2 µM,46.7 µM,≥ 200 µM,,,
O=P(OCCS(=O)(=O)Cc1ccc(CS(=O)(=O)CCOP(=O)(N(CCCl)CCCl)N(CCCl)CCCl)cc1)(N(CCCl)CCCl)N(CCCl)CCCl [Compound 15B],2.4 µM,1.4 µM,4.4 µM,,,
O=C(c1ccc(CS(=O)(=O)CCOP(=O)(N(CCCl)CCCl)N(CCCl)CCCl)cc1)N1CCC(O)C1 (stereo not drawn) [Compound 165A],8 µM,21.9 µM,114 µM,,,
N[C@@H](CCCNC(=O)CS(=O)(=O)CCOP(=O)(N(CCCl)CCCl)N(CCCl)CCCl)C(=O)O [Compound 32A],11.3 µM,41.2 µM,177 µM,,,
O=C(NCc1cccnc1)c1ccc(CS(=O)(=O)CCOP(=O)(N(CCCl)CCCl)N(CCCl)CCCl)cc1 [Compound 174A],14.3 µM,18.8 µM,55.8 µM,,,
O=[N+]([O-])c1cc(CS(=O)(=O)CCOP(=O)(N(CCCl)CCCl)N(CCCl)CCCl)cc(CS(=O)(=O)CCOP(=O)(N(CCCl)CCCl)N(CCCl)CCCl)c1 [Compound 16B],4.5 µM,2.9 µM,9.2 µM,,,
O=P(OCCS(=O)(=O)CCCCCCCCS(=O)(=O)CCOP(=O)(N(CCCl)CCCl)N(CCCl)CCCl)(N(CCCl)CCCl)N(CCCl)CCCl [Compound 7B],1.5 µM,1.9 µM,9.5 µM,,,
O=C(O)c1ncccc1S(=O)(=O)CCOP(=O)(N(CCCl)CCCl)N(CCCl)CCCl [Compound 126A],6.7 µM,20.3 µM,126 µM,,,
"O=C(O)CS(=O)(=O)CCOP(=O)(N(CCCl)CCCl)N(CCCl)CCCl [Compound 14A, 2-[[2-[[bis[bis(2-chloroethyl)amino]phosphinyl]oxy]-ethyl]sulfonyl]acetic acid]",,,,17.6 µM,62.2 µM,≥ 200 µM
O=P(OCCS(=O)(=O)c1ccc(Cl)cc1)(N(CCCl)CCCl)N(CCCl)CCCl [Compound 108A],2.3 µM,3.3 µM,6.4 µM,,,
